Species: Rattus norvegicus
Assay: Open TG-GATES - Regimen: Single
Assay type: toxicity, organism-based, Sprague-Dawley
Set-up: regimen Single, gender Male, age 6 weeks
Conditions: in vivo, po, 0 mg/kg, route gavage, dose level Control; for APTT / Bas / Eos / Fbg / Hb / Ht / Lym / MCH / MCHC / MCV / Mono / Neu / PT / Plat / RBC / Ret / WBC: tissue Blood; for KIDNEY_L / KIDNEY_R / KIDNEY_TOTAL: tissue Kidney; for LIVER: tissue Liver; for A/G / ALP / ALT / AST / BUN / CRE / Ca / Cl / DBIL / GLC / IP / K / LDH / Na / PL / RALB / TBIL / TC / TG / TP / gamma-GTP: tissue Plasma

SMILES: CC(CN1c2ccccc2Sc2ccccc21)N(C)C (configuration not stated) [PROMETHAZINE]
- TERMINAL_BW (3 h): 213.5 g
- APTT (3 h): 22.4 s
- Bas (3 h): 0%
- Eos (3 h): 0.8%
- Fbg (3 h): 333.6 mg/dL
- Hb (3 h): 13 g/dL
- Ht (3 h): 39.9%
- Lym (3 h): 81.4%
- MCH (3 h): 20.6 pg
- MCHC (3 h): 32.6%
- MCV (3 h): 63.4 fL
- Mono (3 h): 2.4%
- Neu (3 h): 15.2%
- PT (3 h): 16.4 s
- Plat (3 h): 117.1 x10_4/uL
- RBC (3 h): 629.4 x10_4/ul
- Ret (3 h): 8.5%
- WBC (3 h): 94.5 x10_2/uL
- KIDNEY_L (3 h): 0.9 g
- KIDNEY_R (3 h): 1 g
- KIDNEY_TOTAL (3 h): 1.9 g
- LIVER (3 h): 9.9 g
- A/G (3 h): 1.2
- ALP (3 h): 1819.4 IU/L
- ALT (3 h): 42.8 IU/L
- AST (3 h): 76 IU/L
- BUN (3 h): 12.8 mg/dL
- CRE (3 h): 0.2 mg/dL
- Ca (3 h): 10.9 mg/dL
- Cl (3 h): 105.8 meq/L
- DBIL (3 h): 0 mg/dL
- GLC (3 h): 190.4 mg/dL
- IP (3 h): 8.1 mg/dL
- K (3 h): 4.4 meq/L
- LDH (3 h): 234.4 IU/L
- Na (3 h): 142.2 meq/L
- PL (3 h): 134.2 mg/dL
- RALB (3 h): 3 g/dL
- TBIL (3 h): 0.016 mg/dL
- TC (3 h): 75 mg/dL
- TG (3 h): 64.2 mg/dL
- TP (3 h): 5.5 g/dL
- gamma-GTP (3 h): 1.2 IU/L
- TERMINAL_BW (6 h): 210.9 g
- APTT (6 h): 22.7 s
- Bas (6 h): 0%
- Eos (6 h): 1%
- Fbg (6 h): 310.8 mg/dL
- Hb (6 h): 13.3 g/dL
- Ht (6 h): 39.9%
- Lym (6 h): 82.6%
- MCH (6 h): 20.9 pg
- MCHC (6 h): 33.4%
- MCV (6 h): 62.5 fL
- Mono (6 h): 2.4%
- Neu (6 h): 13.6%
- PT (6 h): 16.7 s
- Plat (6 h): 111.7 x10_4/uL
- RBC (6 h): 639.6 x10_4/ul
- Ret (6 h): 7.3%
- WBC (6 h): 81.5 x10_2/uL
- KIDNEY_L (6 h): 1 g
- KIDNEY_R (6 h): 1 g
- KIDNEY_TOTAL (6 h): 2 g
- LIVER (6 h): 8.7 g
- A/G (6 h): 1.3
- ALP (6 h): 1393.4 IU/L
- ALT (6 h): 41.4 IU/L
- AST (6 h): 76.2 IU/L
- BUN (6 h): 11.2 mg/dL
- CRE (6 h): 0.2 mg/dL
- Ca (6 h): 10.9 mg/dL
- Cl (6 h): 104.8 meq/L
- DBIL (6 h): 0 mg/dL
- GLC (6 h): 186.2 mg/dL
- IP (6 h): 9.4 mg/dL
- K (6 h): 4.3 meq/L
- LDH (6 h): 208.2 IU/L
- Na (6 h): 141.2 meq/L
- PL (6 h): 133.8 mg/dL
- RALB (6 h): 3 g/dL
- TBIL (6 h): 0.018 mg/dL
- TC (6 h): 83.2 mg/dL
- TG (6 h): 53 mg/dL
- TP (6 h): 5.4 g/dL
- gamma-GTP (6 h): 1.8 IU/L
- TERMINAL_BW (9 h): 207.6 g
- APTT (9 h): 22.2 s
- Bas (9 h): 0%
- Eos (9 h): 0.8%
- Fbg (9 h): 318.8 mg/dL
- Hb (9 h): 13.1 g/dL
- Ht (9 h): 40.1%
- Lym (9 h): 80%
- MCH (9 h): 20.8 pg
- MCHC (9 h): 32.6%
- MCV (9 h): 64 fL
- Mono (9 h): 3%
- Neu (9 h): 15.6%
- PT (9 h): 16.7 s
- Plat (9 h): 123.9 x10_4/uL
- RBC (9 h): 627.6 x10_4/ul
- Ret (9 h): 8.1%
- WBC (9 h): 107.3 x10_2/uL
- KIDNEY_L (9 h): 1 g
- KIDNEY_R (9 h): 1 g
- KIDNEY_TOTAL (9 h): 1.9 g
- LIVER (9 h): 8.7 g
- A/G (9 h): 1.2
- ALP (9 h): 1357.2 IU/L
- ALT (9 h): 38.8 IU/L
- AST (9 h): 68 IU/L
- BUN (9 h): 12.4 mg/dL
- CRE (9 h): 0.2 mg/dL
- Ca (9 h): 10.6 mg/dL
- Cl (9 h): 104.6 meq/L
- DBIL (9 h): 0.004 mg/dL
- GLC (9 h): 191.2 mg/dL
- IP (9 h): 10 mg/dL
- K (9 h): 4.5 meq/L
- LDH (9 h): 237.8 IU/L
- Na (9 h): 140.4 meq/L
- PL (9 h): 125.8 mg/dL
- RALB (9 h): 3 g/dL
- TBIL (9 h): 0.016 mg/dL
- TC (9 h): 73.2 mg/dL
- TG (9 h): 55 mg/dL
- TP (9 h): 5.4 g/dL
- gamma-GTP (9 h): 1.2 IU/L
- TERMINAL_BW (24 h): 222 g
- APTT (24 h): 22.1 s
- Bas (24 h): 0%
- Eos (24 h): 0.8%
- Fbg (24 h): 326.8 mg/dL
- Hb (24 h): 13.5 g/dL
- Ht (24 h): 40.2%
- Lym (24 h): 81.6%
- MCH (24 h): 20.8 pg
- MCHC (24 h): 33.5%
- MCV (24 h): 62.2 fL
- Mono (24 h): 2%
- Neu (24 h): 14.8%
- PT (24 h): 17 s
- Plat (24 h): 131.7 x10_4/uL
- RBC (24 h): 647.6 x10_4/ul
- Ret (24 h): 7.2%
- WBC (24 h): 130.1 x10_2/uL
- KIDNEY_L (24 h): 1 g
- KIDNEY_R (24 h): 1 g
- KIDNEY_TOTAL (24 h): 2 g
- LIVER (24 h): 10.5 g
- A/G (24 h): 1.3
- ALP (24 h): 1690.8 IU/L
- ALT (24 h): 44.2 IU/L
- AST (24 h): 73.2 IU/L
- BUN (24 h): 15.8 mg/dL
- CRE (24 h): 0.2 mg/dL
- Ca (24 h): 11 mg/dL
- Cl (24 h): 106.6 meq/L
- DBIL (24 h): 0 mg/dL
- GLC (24 h): 192.6 mg/dL
- IP (24 h): 7.2 mg/dL
- K (24 h): 4.4 meq/L
- LDH (24 h): 180.6 IU/L
- Na (24 h): 142.4 meq/L
- PL (24 h): 141.4 mg/dL
- RALB (24 h): 3.1 g/dL
- TBIL (24 h): 0.004 mg/dL
- TC (24 h): 74.4 mg/dL
- TG (24 h): 95.8 mg/dL
- TP (24 h): 5.5 g/dL
- gamma-GTP (24 h): 1.4 IU/L

— ChEMBL document CHEMBL3885861, “Open TG-GATES”
